One series deals with T1, Glucocorticoid receptor (Homo sapiens, UniProt P04150).
T1 sequence (P04150 whole entry): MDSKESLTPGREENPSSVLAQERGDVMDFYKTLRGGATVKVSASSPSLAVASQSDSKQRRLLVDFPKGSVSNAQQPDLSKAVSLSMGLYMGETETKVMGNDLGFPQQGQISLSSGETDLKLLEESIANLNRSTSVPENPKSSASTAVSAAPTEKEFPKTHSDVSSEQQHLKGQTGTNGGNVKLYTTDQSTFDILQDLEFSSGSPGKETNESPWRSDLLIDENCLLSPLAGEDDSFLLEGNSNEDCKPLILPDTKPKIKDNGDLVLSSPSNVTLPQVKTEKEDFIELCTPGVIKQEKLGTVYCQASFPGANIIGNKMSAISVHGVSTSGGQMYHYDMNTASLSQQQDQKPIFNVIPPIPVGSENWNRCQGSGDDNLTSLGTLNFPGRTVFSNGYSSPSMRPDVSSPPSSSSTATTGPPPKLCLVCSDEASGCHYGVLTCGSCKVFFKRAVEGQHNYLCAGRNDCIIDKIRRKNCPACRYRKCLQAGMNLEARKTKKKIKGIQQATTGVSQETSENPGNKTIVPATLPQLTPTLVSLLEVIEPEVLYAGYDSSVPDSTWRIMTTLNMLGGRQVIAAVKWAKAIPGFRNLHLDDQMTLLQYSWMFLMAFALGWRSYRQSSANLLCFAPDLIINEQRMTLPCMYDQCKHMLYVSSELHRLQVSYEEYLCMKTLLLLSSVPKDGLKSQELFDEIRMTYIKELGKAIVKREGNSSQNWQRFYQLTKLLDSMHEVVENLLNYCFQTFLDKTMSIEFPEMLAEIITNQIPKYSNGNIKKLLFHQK
The experiment in a line: Inhibition of GST-tagged human glucocorticoid receptor LBD domain expressed in insect cells at by Gal4-based fluorescence polarization assay. Background: Fluorescence polarisation rises when a labelled molecule tumbles more slowly, as on binding a larger partner.

The next series has as its target T2, Progesterone receptor (Homo sapiens, UniProt P06401).
T2 sequence (P06401 whole entry): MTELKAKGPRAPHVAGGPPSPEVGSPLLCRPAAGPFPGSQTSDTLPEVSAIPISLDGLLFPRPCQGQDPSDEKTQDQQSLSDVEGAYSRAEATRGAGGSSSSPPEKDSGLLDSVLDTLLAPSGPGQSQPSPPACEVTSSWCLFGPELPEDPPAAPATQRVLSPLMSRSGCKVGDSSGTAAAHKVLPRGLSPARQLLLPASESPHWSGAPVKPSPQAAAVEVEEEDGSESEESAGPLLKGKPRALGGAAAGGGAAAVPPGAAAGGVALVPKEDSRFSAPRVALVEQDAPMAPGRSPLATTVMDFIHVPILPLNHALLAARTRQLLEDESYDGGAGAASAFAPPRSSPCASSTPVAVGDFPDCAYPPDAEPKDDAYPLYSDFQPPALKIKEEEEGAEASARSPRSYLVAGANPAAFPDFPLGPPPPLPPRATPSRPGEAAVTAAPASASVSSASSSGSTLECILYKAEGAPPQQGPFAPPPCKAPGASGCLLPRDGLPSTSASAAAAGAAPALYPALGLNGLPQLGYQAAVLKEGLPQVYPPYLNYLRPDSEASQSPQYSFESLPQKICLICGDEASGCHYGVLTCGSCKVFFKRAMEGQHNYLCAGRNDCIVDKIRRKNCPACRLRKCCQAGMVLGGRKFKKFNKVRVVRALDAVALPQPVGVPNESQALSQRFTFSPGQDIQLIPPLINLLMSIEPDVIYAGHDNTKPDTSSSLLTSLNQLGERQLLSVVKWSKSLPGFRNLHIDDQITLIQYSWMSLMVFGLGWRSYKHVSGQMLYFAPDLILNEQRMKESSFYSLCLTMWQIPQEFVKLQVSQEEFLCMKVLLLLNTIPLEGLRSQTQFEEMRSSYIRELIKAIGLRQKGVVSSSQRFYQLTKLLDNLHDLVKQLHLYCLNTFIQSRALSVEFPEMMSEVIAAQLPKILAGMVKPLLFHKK
The experiment in a line: Inhibition of GST-tagged human progesterone receptor LBD domain expressed in insect cells by Gal4-based fluorescence polarization assay.

Series [1] in a line: Half life of compound in rat liver microsomes. In kind it is ADME.
In series [2] the target is Histamine H1 receptor (Homo sapiens) (UniProt P35367). The experiment in a line: Inhibition of histamine H1 receptor (unknown origin) at 10 uM.
In the next series the target is Cytochrome P450 3A4 (Homo sapiens, UniProt P08684).
The next series deals with hERG (KCNH2) (Homo sapiens, UniProt Q12809). Kind of series: Inhibition of human ERG (unknown origin) at 10 uM.
The target of another series is Cytochrome P450 2D6 (Homo sapiens, UniProt P10635). The experiment in a line: Inhibition of CYP2D6 (unknown origin). Format: ADME.
Another series concerns the target Cytochrome P450 2C9 (Homo sapiens, UniProt P11712). The experiment in a line: Inhibition of CYP2C9 (unknown origin). In kind it is ADME.
For series [3], the target named is T3, Mineralocorticoid receptor (Homo sapiens, UniProt P08235, C808S).
For series [4], the target named is T4, Alpha-2A adrenergic receptor (Homo sapiens) (UniProt P08913).
T4 sequence (whole entry): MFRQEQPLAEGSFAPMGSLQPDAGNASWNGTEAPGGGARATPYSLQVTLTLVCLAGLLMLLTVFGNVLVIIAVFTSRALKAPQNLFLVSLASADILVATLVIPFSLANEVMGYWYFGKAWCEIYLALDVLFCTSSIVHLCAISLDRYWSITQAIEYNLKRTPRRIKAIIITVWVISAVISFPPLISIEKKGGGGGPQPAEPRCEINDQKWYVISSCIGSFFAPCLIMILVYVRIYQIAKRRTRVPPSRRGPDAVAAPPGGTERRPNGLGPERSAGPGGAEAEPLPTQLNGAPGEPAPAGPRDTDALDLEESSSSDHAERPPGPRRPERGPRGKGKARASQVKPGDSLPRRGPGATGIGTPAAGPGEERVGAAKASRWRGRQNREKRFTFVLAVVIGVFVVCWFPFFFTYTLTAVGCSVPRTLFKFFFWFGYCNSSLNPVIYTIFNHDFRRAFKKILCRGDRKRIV
The experiment in a line: Inhibition of adrenergic alpha2A receptor (unknown origin) at 10 uM.

Series [5] concerns the target T3, Mineralocorticoid receptor. This is another data set of the same source.
For series [6], the target named is 5-hydroxytryptamine receptor 2B (Homo sapiens) (UniProt P41595). Kind of series: Inhibition of serotonin 5H2B receptor (unknown origin) at 10 uM.
The next series addresses T5, Estrogen receptor (Homo sapiens, UniProt P03372).
T5 sequence (P03372 whole entry): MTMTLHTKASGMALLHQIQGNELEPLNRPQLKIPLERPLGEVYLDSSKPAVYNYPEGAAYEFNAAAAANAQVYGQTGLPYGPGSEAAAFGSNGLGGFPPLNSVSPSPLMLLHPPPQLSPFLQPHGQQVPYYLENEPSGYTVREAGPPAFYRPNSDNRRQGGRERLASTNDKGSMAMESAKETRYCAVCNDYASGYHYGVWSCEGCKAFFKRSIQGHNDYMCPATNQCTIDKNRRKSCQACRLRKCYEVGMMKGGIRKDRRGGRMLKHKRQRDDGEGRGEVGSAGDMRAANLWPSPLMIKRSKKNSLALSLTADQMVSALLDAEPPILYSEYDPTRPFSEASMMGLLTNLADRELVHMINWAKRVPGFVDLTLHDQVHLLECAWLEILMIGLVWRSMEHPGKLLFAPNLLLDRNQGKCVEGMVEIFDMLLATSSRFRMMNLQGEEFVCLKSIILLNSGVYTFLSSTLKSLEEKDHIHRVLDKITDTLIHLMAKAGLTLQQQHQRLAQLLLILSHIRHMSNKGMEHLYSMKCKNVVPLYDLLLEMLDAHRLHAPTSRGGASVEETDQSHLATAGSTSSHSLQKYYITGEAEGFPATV
Kind of series: Inhibition of estrogen receptor (unknown origin) by Gal4-based luciferase assay.

Bounds are passed on as bounds.

T3 sequence (P08235 whole entry C808S): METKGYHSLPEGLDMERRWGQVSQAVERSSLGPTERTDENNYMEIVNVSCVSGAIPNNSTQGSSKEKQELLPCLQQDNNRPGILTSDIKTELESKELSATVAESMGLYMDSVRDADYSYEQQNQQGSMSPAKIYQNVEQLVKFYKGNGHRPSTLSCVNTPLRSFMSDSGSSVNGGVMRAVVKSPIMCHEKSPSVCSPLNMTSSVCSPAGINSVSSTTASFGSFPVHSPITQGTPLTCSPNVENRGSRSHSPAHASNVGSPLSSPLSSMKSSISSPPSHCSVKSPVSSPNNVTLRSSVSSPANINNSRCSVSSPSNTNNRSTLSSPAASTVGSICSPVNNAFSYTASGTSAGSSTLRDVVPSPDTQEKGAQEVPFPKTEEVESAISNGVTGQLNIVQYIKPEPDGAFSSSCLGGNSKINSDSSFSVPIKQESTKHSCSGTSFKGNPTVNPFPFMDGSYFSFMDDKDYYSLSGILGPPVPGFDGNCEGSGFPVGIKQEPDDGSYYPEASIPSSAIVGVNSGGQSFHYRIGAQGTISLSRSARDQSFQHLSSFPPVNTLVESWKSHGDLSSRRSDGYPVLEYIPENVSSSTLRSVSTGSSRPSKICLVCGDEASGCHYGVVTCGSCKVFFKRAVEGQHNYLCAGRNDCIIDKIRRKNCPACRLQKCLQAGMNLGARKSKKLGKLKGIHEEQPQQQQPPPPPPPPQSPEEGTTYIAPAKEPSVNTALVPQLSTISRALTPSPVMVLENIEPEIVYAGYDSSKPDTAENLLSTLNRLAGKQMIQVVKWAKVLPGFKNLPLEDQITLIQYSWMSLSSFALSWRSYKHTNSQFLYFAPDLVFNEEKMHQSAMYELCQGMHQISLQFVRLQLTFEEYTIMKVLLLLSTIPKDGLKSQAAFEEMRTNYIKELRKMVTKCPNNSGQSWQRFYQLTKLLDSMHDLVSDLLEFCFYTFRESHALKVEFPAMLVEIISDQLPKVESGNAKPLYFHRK
Sequence of hERG (KCNH2) (Q12809 whole entry): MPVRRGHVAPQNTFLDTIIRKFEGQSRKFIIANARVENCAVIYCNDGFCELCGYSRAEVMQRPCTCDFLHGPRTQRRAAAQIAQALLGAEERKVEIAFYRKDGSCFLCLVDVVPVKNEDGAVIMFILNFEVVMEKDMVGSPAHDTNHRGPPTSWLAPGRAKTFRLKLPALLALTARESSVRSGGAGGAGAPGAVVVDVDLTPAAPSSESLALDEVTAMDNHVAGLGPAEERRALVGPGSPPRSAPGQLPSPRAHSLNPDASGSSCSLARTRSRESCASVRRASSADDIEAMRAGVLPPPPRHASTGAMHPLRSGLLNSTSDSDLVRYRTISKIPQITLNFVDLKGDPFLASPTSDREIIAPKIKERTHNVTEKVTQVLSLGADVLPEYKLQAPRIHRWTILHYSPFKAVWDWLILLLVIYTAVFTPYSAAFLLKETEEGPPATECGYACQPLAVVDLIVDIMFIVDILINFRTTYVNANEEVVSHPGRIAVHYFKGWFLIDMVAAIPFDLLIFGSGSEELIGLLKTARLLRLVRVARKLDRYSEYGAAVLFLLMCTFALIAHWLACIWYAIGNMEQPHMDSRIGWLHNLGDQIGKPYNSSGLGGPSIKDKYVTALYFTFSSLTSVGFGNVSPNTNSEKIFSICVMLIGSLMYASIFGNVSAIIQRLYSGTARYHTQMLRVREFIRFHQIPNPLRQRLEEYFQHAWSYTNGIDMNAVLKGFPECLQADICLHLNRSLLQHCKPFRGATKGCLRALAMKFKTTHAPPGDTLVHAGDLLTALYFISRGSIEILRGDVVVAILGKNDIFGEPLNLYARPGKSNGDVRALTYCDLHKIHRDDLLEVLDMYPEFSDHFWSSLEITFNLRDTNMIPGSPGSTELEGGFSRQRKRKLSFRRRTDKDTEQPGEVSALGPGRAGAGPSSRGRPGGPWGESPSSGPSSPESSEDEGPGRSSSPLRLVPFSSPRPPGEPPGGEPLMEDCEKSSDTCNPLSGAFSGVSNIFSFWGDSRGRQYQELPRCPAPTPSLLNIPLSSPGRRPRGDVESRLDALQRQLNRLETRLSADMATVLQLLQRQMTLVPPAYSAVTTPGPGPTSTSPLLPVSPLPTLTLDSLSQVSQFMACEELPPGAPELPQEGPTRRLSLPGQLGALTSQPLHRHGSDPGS
Sequence of Histamine H1 receptor (Homo sapiens) (P35367 whole entry): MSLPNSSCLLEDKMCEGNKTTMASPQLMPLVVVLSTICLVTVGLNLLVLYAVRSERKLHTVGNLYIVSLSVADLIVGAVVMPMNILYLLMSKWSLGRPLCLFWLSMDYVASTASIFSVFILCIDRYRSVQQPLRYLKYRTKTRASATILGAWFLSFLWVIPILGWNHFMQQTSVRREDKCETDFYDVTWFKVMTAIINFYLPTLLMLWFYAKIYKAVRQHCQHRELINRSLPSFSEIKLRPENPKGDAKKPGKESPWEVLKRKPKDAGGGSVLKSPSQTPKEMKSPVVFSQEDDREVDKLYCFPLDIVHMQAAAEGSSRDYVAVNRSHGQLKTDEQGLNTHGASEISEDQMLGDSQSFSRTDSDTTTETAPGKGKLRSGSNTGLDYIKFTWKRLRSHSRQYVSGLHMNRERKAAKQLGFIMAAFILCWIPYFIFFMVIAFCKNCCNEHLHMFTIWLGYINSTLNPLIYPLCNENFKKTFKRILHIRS
Sequence of Cytochrome P450 3A4 (P08684 whole entry): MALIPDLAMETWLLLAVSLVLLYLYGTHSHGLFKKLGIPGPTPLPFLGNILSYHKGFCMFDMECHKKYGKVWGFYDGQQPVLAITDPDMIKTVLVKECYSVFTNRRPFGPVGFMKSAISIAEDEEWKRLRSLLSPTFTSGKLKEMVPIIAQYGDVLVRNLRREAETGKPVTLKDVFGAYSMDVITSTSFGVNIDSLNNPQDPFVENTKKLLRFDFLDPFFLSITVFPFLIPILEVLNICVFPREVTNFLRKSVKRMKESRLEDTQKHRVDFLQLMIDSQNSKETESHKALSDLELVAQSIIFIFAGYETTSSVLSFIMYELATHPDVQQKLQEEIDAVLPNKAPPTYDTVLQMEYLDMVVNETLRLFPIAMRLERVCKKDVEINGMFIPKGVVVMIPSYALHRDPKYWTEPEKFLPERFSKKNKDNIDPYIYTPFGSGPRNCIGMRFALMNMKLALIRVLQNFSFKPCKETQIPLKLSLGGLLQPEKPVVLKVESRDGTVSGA
Sequence of Cytochrome P450 2D6 (P10635 whole entry): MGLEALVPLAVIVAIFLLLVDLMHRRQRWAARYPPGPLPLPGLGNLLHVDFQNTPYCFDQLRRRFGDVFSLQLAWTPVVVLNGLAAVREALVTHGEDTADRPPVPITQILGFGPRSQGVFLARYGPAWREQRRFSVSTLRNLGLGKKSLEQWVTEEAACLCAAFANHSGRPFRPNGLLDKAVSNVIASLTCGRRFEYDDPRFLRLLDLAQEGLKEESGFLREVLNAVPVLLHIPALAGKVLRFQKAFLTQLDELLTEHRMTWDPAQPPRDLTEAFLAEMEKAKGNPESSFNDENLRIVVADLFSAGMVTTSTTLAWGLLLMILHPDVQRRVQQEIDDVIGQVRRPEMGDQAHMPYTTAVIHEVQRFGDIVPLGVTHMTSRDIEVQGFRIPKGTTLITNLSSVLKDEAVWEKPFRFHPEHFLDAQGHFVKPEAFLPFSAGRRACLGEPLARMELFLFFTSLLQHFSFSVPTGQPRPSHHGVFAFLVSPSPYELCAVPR
Sequence of Cytochrome P450 2C9 (P11712 whole entry): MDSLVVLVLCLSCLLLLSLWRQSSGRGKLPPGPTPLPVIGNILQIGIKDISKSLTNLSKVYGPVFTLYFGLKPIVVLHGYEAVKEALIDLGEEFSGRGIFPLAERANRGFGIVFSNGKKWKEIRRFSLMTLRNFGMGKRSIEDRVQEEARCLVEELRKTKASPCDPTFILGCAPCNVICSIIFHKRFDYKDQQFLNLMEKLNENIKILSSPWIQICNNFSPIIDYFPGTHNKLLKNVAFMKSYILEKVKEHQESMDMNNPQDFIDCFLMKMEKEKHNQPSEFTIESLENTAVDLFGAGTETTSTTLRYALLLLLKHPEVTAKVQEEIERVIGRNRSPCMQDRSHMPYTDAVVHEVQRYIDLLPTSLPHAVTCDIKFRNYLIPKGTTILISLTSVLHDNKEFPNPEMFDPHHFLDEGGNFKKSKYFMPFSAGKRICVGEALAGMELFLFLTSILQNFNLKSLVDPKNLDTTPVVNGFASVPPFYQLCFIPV
Sequence of 5-hydroxytryptamine receptor 2B (Homo sapiens) (P41595 whole entry): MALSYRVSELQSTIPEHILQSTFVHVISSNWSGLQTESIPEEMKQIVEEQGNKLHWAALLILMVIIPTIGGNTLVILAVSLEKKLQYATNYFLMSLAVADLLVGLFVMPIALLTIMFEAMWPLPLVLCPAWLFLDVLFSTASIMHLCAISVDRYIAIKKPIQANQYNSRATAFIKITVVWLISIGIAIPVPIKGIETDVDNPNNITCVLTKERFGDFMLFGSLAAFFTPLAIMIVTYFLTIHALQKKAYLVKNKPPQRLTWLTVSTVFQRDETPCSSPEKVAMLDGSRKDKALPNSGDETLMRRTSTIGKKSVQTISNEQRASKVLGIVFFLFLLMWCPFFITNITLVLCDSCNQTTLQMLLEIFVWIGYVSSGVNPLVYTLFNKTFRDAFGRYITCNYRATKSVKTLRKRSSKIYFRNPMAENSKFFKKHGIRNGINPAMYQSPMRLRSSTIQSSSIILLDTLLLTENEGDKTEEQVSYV
Description for Cytochrome P450 3A4: Inhibition of CYP3A4 (unknown origin)

Turning to `O=C(O)CCN1CCC2(CC1)C(=O)Nc1cc(/C=C3\c4ccccc4COc4cc(F)ccc43)ccc12`, the IC50 (as a rule, the concentration that gives 50% inhibition) on Glucocorticoid receptor is more than 12 µM; against Progesterone receptor, more than 12 µM; against Cytochrome P450 3A4, 26 µM; at Cytochrome P450 2D6 it was 29.9 µM; against Cytochrome P450 2C9, 12.6 µM; in [3] it was 0.029 µM. The same molecule gave an IC50 against Estrogen receptor of more than 12 µM. Moreover, the half-life (commonly the time needed for the level to fall by half in the phase considered) in [1] is more than 1 h. The figures for the inhibition in series [2], in series [4] and in series [6] were 60%, 75% and 36%, respectively. At hERG (KCNH2), the inhibition (as a rule, the share of the control response that was lost under treatment) at 10 µM stood at 32%. Affinity in series [5] was put at a Ki of 0.016 µM.

On to `C[N+]1([O-])CCC2(CC1)C(=O)Nc1cc(/C=C3\c4ccccc4COc4cc(F)ccc43)ccc12` (stereo unspecified), for which the IC50 is more than 37 µM against Glucocorticoid receptor; more than 37 µM on Progesterone receptor; 26.1 µM against Cytochrome P450 3A4; more than 30 µM at Cytochrome P450 2D6; 17 µM against Cytochrome P450 2C9; 0.044 µM in series [3]. The same molecule came in with an IC50 on Estrogen receptor of more than 37 µM. This molecule also showed a half-life in [1] of more than 1 h. Also, the figures for the inhibition in [2], in series [4] and in [6] were 65%, 60% and 66%, respectively. Moreover, the inhibition at 10 µM at hERG (KCNH2) was 55%. Besides, the affinity in series [5], expressed as Ki, was 0.019 µM.

These data come from ChEMBL document CHEMBL3774336, “Identification of spirooxindole and dibenzoxazepine motifs as potent mineralocorticoid receptor antagonists” (Bioorg Med Chem, 2016).
